Results: article doi:10.1101/2023.09.30.560269v1 (biorxiv, 2023)

Columns and labels:
[1] = target: T1, hLIFR and CD130 (IL6ST); LIFR/gp130 (Homo sapiens, UniProt P42702); assay: STAT3; type: cell-based
T1 sequence (P42702 45-1097): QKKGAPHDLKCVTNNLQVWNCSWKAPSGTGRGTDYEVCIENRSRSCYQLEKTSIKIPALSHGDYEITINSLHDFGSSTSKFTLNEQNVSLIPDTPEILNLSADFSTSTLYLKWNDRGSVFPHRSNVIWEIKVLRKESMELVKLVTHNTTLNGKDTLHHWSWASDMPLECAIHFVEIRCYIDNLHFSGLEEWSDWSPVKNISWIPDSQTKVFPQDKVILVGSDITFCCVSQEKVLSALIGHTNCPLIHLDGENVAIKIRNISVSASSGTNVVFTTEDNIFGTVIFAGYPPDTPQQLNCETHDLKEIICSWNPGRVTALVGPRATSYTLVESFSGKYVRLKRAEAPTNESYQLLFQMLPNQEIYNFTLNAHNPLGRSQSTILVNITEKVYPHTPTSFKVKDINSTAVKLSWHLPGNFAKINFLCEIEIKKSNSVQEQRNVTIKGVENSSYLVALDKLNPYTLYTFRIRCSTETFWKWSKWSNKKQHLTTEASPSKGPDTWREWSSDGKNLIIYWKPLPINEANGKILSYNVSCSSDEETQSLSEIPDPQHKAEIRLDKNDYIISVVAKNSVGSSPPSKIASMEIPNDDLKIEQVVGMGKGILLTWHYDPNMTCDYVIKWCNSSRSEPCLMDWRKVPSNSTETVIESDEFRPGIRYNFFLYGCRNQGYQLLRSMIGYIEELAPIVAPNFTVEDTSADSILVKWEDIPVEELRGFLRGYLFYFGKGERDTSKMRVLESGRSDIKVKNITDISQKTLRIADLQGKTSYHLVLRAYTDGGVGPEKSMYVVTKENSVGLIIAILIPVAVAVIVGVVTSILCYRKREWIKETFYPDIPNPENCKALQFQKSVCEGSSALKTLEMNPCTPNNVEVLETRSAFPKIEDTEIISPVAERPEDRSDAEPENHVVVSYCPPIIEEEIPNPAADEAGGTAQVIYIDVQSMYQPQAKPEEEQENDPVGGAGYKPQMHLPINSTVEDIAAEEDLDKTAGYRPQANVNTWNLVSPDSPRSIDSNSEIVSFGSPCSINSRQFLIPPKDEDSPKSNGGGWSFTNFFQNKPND

[2] = target: T2, hLIFR (recombinant human LIFR, His Tag) (Homo sapiens, UniProt P42702); assay: AlphaScreen, inhibition of LIFR/LIF binding
T2 sequence (P42702 45-833 limits assumed): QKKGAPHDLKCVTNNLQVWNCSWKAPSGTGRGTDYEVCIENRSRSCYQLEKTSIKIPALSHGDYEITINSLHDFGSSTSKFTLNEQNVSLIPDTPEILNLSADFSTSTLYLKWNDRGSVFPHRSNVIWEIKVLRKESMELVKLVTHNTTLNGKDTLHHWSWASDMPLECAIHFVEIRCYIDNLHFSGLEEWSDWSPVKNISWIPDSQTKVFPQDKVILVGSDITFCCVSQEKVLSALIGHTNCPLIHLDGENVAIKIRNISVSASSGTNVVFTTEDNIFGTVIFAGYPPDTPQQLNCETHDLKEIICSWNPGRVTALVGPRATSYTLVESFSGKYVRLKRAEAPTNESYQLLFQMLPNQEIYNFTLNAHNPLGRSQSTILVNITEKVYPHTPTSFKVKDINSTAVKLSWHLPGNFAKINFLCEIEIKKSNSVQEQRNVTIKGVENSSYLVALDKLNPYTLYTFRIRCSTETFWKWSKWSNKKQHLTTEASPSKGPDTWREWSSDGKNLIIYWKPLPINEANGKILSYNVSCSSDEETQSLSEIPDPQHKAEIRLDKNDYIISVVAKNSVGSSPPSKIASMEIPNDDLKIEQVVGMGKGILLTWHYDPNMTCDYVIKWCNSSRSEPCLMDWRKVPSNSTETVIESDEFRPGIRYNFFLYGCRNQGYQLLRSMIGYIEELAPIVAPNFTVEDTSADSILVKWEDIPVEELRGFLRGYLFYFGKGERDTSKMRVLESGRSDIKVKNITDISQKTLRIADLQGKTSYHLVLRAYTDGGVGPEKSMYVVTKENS

| IC50 [1] [µM] | IC50 [2] [µM] | Compound |
| --- | --- | --- |
| ~6.2 | 18.4 | C[C@H](CCC(=O)O)[C@H]1CC[C@H]2[C@@H]3CC[C@@H]4C[C@H](O)CC[C@]4(C)[C@H]3C[C@H](O)[C@]12C [DCA] |
| – | 50.6 | C[C@H](CCC(=O)NCC(=O)O)[C@H]1CC[C@H]2[C@@H]3[C@H](O)C[C@@H]4C[C@H](O)CC[C@]4(C)[C@H]3CC[C@]12C [GCDCA] |
| ~9.8 | 23 | C[C@H](CCC(=O)NCC(=O)O)[C@H]1CC[C@H]2[C@@H]3CC[C@@H]4C[C@H](O)CC[C@]4(C)[C@H]3CC[C@]12C [GLCA] |
| – | 38 | C[C@H](CCC(=O)NCCS(=O)(=O)O)[C@H]1CC[C@H]2[C@@H]3[C@H](O)C[C@@H]4C[C@H](O)CC[C@]4(C)[C@H]3CC[C@]12C [TCDCA] |
